These results are taken from patent publication US5922891A, “2-substituted 1,8-dihydroxy-9(10H)-anthracenone pharmaceuticals” (priority 1997, dated 1999).

One series relates to HaCaT cells. In words: Antiproliferative activity against HaCaT cells (human keratinocyte cell line). It counts as cell-based. Particulars: 48 h, read-out: AA IC50 (antiproliferative activity). The protocol:
HaCaT cells were grown in Dulbecco's modified Eagle's medium (DMEM, No. 041-11954A, Gibco) supplemented with 10% fetal calf serum, penicillin (100 U/mL), and streptomycin (100 μg/mL) in a humidified incubator containing 8% CO2 at 37° C. Cells (2.5·10^4 /1.1 ml per well) were seeded on 24-well multidishes and grown in DMEM. After 24 hours of growth, the medium was replaced with fresh medium and a test compound (0.1-5 μM) was added from freshly made stock solutions, which were prepared in DMSO and diluted with DMEM. The final concentration of DMSO in the culture medium was 0.2%. Controls were performed using DMSO or medium alone. Forty-eight hours after addition of a test compound to the culture, the medium was removed and each well was rinsed with phosphate-buffered saline (PBS, 100 μL). The cells were then incubated with sterile 0.5% trypsin, 0.2% EDTA in PBS for 20 minutes at 37° C. The detached cells from each well were suspended in DMEM and dispersed as single cells by gentle pipetting through an Eppendorf pipette. Cell growth was determined directly by counting the keratinocytes on a Neubauer counting chamber using phase contrast microscopy. Inhibition of cell proliferation was calculated by a comparison of the mean value of the test compound (N=3) with the control (N=6-8) activity: (1-test compound/control)×100.

Series [1] can be described thus: Deoxyribose degradation as a measure of hydroxyl radical formation. It counts as biochemical. The conditions noted are these: 75 μM test compound; controls < 0.1. How it is done: ^c Deoxyribose degradation as a measure of hydroxyl radical formation
Indicated values are μmoles of malondialdehyde per mmole of deoxyribos
released by 75 μM test compound (controls < 0.1).
Degradation of deoxyribose provides a measurement of the amount of hydroxyl radical formation caused by the test compounds. The assay used to determine degradation of 2-deoxy-D-ribose followed generally the procedures of Gutteridge, J. M. C., Biochem. J., 224: 761-767 (1984) and Laughton, et al., Biochem. Pharmacol., 38: 2859-2865 (1989). The following reagents were added to glass tubes in the order and at the final concentrations listed. 0.3 mL kH2 PO4 --KOH buffer, pH 7.4 (30 mM), 0.2 ml double distilled H2 O, 0.2 ml 2-deoxy-D-ribose (2 mM), 0.2 ml FeCl3.6H2 O (0.1 mM), 0.1 ml 2-substituted anthracenone ([…]). Stock solutions of each of the 2-substituted anthracenone compounds were made up fresh before use. Appropriate blanks and controls using an acetronitrile vehicle were performed.
Final reaction volumes were standardized to 1.0 ml. The reaction mixtures were incubated for 2 hours at 37° C. in a shaking water bath at 50 rpm. 1 ml of 2.8% (w/v) trichloracetic acid and 1 ml of 1% (w/v in 0.05 N NaOH) 2-thiobarbituric acid (TBA) were added, and the samples were heated at 100° C. for 15 minutes and then cooled in an ice bath (5 minutes). 2 ml of each reaction mixture was treated with 0.05 ml of 36% (w/v) HCl and 2 of 1-butanol, followed by vigorous shaking with a vortex mixer (Heidolph) for 15 seconds. The organic layer was separated by centrifugation at 3000 rpm (15 minutes) and absorbance at 532 nm was measured against butanol. Calibration was performed using a malondialdehyde (MDA) standard prepared by hydrolysis of 1,1,3,3-tetraethoxypropane (Gutteridge, J. M. C., Anal. Biochem., 69: 518-526 (1975). TBA reactive material was expressed in terms of μmol MDA per μmol deoxyribose. The results of the assay are provided in Table I.

The target of the next series is T1, 5-LO in bovine PMNL (Bos taurus, UniProt F1MQ78).
T1 construct: The purified PMNLs were suspended at a concentration of; endogenous in cells; host or cells: polymorphonuclear leukocytes isolated from bovine blood
T1 sequence (F1MQ78 1-674): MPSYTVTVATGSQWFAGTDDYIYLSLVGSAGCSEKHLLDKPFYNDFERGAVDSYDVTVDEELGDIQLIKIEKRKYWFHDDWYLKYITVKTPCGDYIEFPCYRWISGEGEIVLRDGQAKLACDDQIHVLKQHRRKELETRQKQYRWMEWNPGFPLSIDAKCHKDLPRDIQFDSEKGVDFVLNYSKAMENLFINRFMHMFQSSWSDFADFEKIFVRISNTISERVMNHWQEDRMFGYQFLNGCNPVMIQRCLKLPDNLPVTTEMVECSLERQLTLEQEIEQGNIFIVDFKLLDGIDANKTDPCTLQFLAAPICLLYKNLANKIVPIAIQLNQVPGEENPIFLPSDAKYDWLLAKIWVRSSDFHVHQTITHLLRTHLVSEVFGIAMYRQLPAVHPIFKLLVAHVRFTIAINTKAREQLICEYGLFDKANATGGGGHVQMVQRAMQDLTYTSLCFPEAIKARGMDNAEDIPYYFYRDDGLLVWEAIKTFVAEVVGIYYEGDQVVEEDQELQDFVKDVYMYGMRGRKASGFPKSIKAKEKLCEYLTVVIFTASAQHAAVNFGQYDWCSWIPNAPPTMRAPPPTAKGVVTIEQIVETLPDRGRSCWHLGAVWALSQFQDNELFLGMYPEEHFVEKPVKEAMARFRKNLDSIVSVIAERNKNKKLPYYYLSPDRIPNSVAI
In words: Inhibition of 5-lipoxygenase (5-HETE and LTB4 biosynthesis) in Ca-ionophore-stimulated bovine PMNL. It counts as cell-based. Particulars: N = 3 or more. The protocol: Briefly, PMNLs were prepared from sodium EDTA-anticoagulated bovine blood, essentially as described by Walstra, P. et al., (Biochem. Biophys. Acta, 795:499-503 (1984)). Contaminating platelets were removed by repeated centrifugations at 100 g for 20 minutes. […] Cell counts were conducted with a Sysmex micro cell counter CC-130. Preincubation was performed with 2.4 ml of the suspension and 10 μl of a DMSO stock solution of test compounds at the desired concentrations in phosphate buffered saline (PBS) or vehicle control (DMSO at final concentration of 0.4%) for 15 minutes at 37° C. in a shaking water bath at 50 rpm. […] The incubation mixture was held on ice bath for 20 minutes and then centrifuged at 4000 g for 5 minutes at 0° C. The supernatant was diluted with 5 ml of water and passed through a prewashed (10 ml of methanol and 5 ml of water, sequentially) octadecylsilane reversed phase cartridge (Baker). The eicosanoids were eluted with 3 ml of methanol, diluted with 3 ml of water and subjected to reversed phase HPLC analysis using a 250×4 mm column packed with Nucleosil C18 (7 μm particles; Bischoff, Leonberg, Germany). The isocratic elution conditions of LTB4 were tetrahydrofuran (THF)/methanol/water/acetic acid (25+30+45+0.1), adjusted to pH 5.5 with concentrated NH3, at a flow rate of 0.9 ml/min (Kontron 420 pump), monitored at 280 nm with a Kontron 735 LC UV detector. 5-HETE was monitored at 232 nm using methanol/water/acetic acid (77+23+0.1), pH 5.5 and a flow rate 1.0 ml/min. Data were recorded on a MacLab data acquisition system (WissTech, Germany) and analysis was performed using the application Peaks on an Apple Macintosh Quadra 700 computer. Integrated areas of the peaks were compared to a PGB2 internal standard and to external standards of authentic samples. Molar absorption coefficients of Samuelsson et al., Borgeat, P. and B. Samuelsson, (Proc. Natl. Acad. Sci. USA, 76:2148-2152 (1979)), were used for making calculations. Inhibition was calculated by a comparison of the mean value of test compound (n=3) with control (n=6-8) activity: (1-test compound/control)×100.
See Walstra, P. et al., Biochem Biophys. Acta, 795:499-503 (1984); and Dannhardt et al. J. Pharm. Pharmacol., 44:419-424 (1992). […] (Schroder, J. M., J. Invest. Dermatol., 87:624-629 (1986); Tanzer, et al., Arch. Pharm. (Weinheim), 324:841-846 (1991)).

As for `O=C(O)Cc1ccc2c(c1O)C(=O)c1c(O)cccc1C2` [IA, 9,10-Dihydro-1,8-dihydroxy-9-oxo-2-anthracenacetic acid, reference compound], the IC50 (as a rule, the point on the concentration scale where inhibition reaches its midpoint) with HaCaT cells was over 5000 nM. In series [1], the “DD (deoxyribose degradation, malondialdehyde released)” value (from here on “DD”) was 3.74 ± 0.23 μmol of MDA/mmol.
Compound `COC(=O)Cc1ccc2c(c1O)C(=O)c1c(O)cccc1C2` [IB, Methyl 9,10-Dihydro-1,8-dihydroxy-9-oxo-2-anthracenacetate] yielded an IC50 on 5-LO in bovine PMNL of over 30000 nM.
Turning to `O=C(Cc1ccc2c(c1O)C(=O)c1c(O)cccc1C2)NO` [IC, N-Hydroxy-(9,10-dihydro-1,8-dihydroxy-9-oxo-2-anthracene)acetamide], the “DD” value in series [1] is on record as 1.89 ± 0.14 μmol of MDA/mmol.
Consider `O=C(O)CCc1ccc2c(c1O)C(=O)c1c(O)cccc1C2` [IIA, 3-(9,10-Dihydro-1,8-dihydroxy-9-oxo-2-anthracene) propionic acid, reference compound], for which the IC50 with HaCaT cells was over 5000 nM. Moreover, the “DD” value in series [1] was 2.67 ± 0.23 μmol of MDA/mmol.
Consider `COC(=O)CCc1ccc2c(c1O)C(=O)c1c(O)cccc1C2` [IIB, Methyl 3-(9,10-Dihydro-1,8-dihydroxy-9-oxo-2-anthracene) propionate], for which the IC50 at 5-LO in bovine PMNL is over 30000 nM.
On to `O=C(CCc1ccc2c(c1O)C(=O)c1c(O)cccc1C2)NO` [IIC, N-Hydroxy-3-(9,10-dihydro-1,8-dihydroxy-9-oxo-2-anthracene)propionamide], for which the IC50 with HaCaT cells was determined as 1300 nM. In series [1], the “DD” value is 1.67 ± 0.31 μmol of MDA/mmol.
Taken in the same sequence, the figures for `O=C(O)CCCc1ccc2c(c1O)C(=O)c1c(O)cccc1C2` [IIIA, 4-(9,10-Dihydro-1,8-dihydroxy-9-oxo-2-anthracene) butanoic acid, reference compound] were over 5000 nM and 2.61 ± 0.38 μmol of MDA/mmol.
Taken in the same sequence, the figures for `O=C(CCCc1ccc2c(c1O)C(=O)c1c(O)cccc1C2)NO` [IIIC, N-Hydroxy-4-(9,10-dihydro-1,8-dihydroxy-9-oxo-2-anthracene)butanamide] were 1500 nM and 1.46 ± 0.02 μmol of MDA/mmol.
Taken in the same sequence, the figures for `O=C1c2c(O)cccc2Cc2ccc(C(Cc3ccccc3)C(=O)O)c(O)c21` (stereo not drawn) [IXA, 2-(9,10-Dihydro-1,8-dihydroxy-9-oxo-2-anthracene)-3-phenylpropionic acid] were over 5000 nM and 3.25 ± 0.45 μmol of MDA/mmol.
`O=C1c2c(O)cccc2Cc2ccc(C(Cc3ccccc3)C(=O)NO)c(O)c21` (stereo not drawn) [IXC, N-Hydroxy-2-(9,10-dihydro-1,8-dihydroxy-9-oxo-2-anthracene)-3-phenylpropionamide]: the IC50 in the series on HaCaT cells was determined as 1500 nM.
Turning to `CN(O)C(=O)C(Cc1ccccc1)c1ccc2c(c1O)C(=O)c1c(O)cccc1C2` (stereo not drawn) [IXD, N-Hydroxy-N-methyl-2-(9,10-dihydro-1,8-dihydroxy-9-oxo-2-anthracene)-3-phenylpropionamide], in the series on HaCaT cells, the IC50 was determined as 900 nM. Besides, the “DD” value in series [1] is listed as 1.68 ± 0.13 μmol of MDA/mmol.
Take `CC(C(=O)O)c1ccc2c(c1O)C(=O)c1c(O)cccc1C2` (stereo not drawn) [VIIA, 2-(9,10-Dihydro-1,8-dihydroxy-9-oxo-2-anthracene) propionic acid]: the IC50 in the series on HaCaT cells is over 5000 nM.
As for `COC(=O)C(C)c1ccc2c(c1O)C(=O)c1c(O)cccc1C2` (stereo not drawn) [VIIB, Methyl 2-(9,10-Dihydro-1,8-dihydroxy-9-oxo-2-anthracene) propionate], the IC50 on 5-LO in bovine PMNL was over 30000 nM.
Consider `CC(C)C(C(=O)NO)c1ccc2c(c1O)C(=O)c1c(O)cccc1C2` (stereo not drawn) [VIIIC, N-Hydroxy-2-(9,10-dihydro-1,8-dihydroxy-9-oxo-2-anthracene)-3-methylbutanamide], for which the IC50 in the series on HaCaT cells stood at 1500 nM. Besides, the “DD” value in series [1] is on record as 1.66 ± 0.08 μmol of MDA/mmol.
At 5-LO in bovine PMNL, `O=C(O)c1ccc(Cc2ccc3c(c2O)C(=O)c2c(O)cccc2C3)cc1` [XIA, 4-[(9,10-Dihydro-1,8-dihydroxy-9-oxo-2-anthracene)methyl]benzoic acid, reference compound] gave an IC50 of 2000 nM.
As for `O=C(NO)c1ccc(Cc2ccc3c(c2O)C(=O)c2c(O)cccc2C3)cc1` [XIC, N-Hydroxy-4-[(9,10-dihydro-1,8-dihydroxy-9-oxo-2-anthracene)methyl]benzamide], the IC50 with HaCaT cells worked out at 1400 nM.
Turning to `CN(O)C(=O)c1ccc(Cc2ccc3c(c2O)C(=O)c2c(O)cccc2C3)cc1` [XID, N-Hydroxy-N-methyl-4-[(9,10-dihydro-1,8-dihydroxy-9-oxo-2-anthracene)methyl]benzamide], the “DD” value in series [1] is recorded as 0.97 ± 0.03 μmol of MDA/mmol.
Take `O=C(O)c1ccc(C(=O)c2ccc3c(c2O)C(=O)c2c(O)cccc2C3)cc1` [XIIA, 4-[(9,10-Dihydro-1,8-dihydroxy-9-oxo-2-anthracene)oxomethyl]benzoic acid]: the IC50 in the series with HaCaT cells is over 5000 nM. For the same compound, the “DD” value in series [1] is recorded as 1.80 ± 0.14 μmol of MDA/mmol.
